Assay results reported in US20240368159A1, “HPK1 DEGRADERS, COMPOSITIONS COMPRISING THE HPK1 DEGRADER, AND METHODS OF USING THE SAME” (BIOFRONT LTD, priority 2021, published 2024).

Columns and labels:
HPK1 protein [1] = molecular target: T1, HPK1 protein (Homo sapiens, UniProt Q92918); experiment: HPK1 enzyme inhibition assay (ADP-Glo); type: biochemical; conditions: MBP substrate, ATP, ADP-Glo readout
T1 construct: purchased Signal Chem M23-11G-10
T1 sequence (Q92918 1-346 limits assumed): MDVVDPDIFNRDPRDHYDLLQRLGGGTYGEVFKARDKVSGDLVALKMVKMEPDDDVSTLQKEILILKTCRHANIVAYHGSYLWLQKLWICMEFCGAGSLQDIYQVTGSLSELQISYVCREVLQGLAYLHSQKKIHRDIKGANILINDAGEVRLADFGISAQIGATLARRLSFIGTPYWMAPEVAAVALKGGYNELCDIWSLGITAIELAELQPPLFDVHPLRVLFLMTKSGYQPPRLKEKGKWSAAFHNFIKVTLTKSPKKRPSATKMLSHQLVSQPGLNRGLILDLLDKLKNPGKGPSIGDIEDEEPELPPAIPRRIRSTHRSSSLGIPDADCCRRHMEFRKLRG
In short: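 Recombinant human HPK1 preincubated with compound 60 min at 25 °C, then reaction with MBP (0.2 ug/ul, 2× stock) and ATP (20 μM, 2× stock) 60 min at 25 °C. ADP formed detected by ADP-Glo after ATP depletion and conversion to ATP; IC50 calculated from signal.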

HPK1 p-SLP-76 = HPK1 p-SLP-76 inhibition assay in human PBMC (HTRF); type: cell-based; conditions: 6 h compound, anti-CD3 stimulation 20 min
In short: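 Human PBMC starved overnight in 0.5% FBS, treated with compound 6 h at 37° C, then stimulated with anti-CD3 (10 ug/mL final) for 20 min. Lysates analysed for phospho-SLP76 by HTRF after overnight detection-antibody incubation at 25° C.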

HPK1 protein [2] = molecular target: T2, HPK1 protein (Homo sapiens, UniProt Q92918); experiment: HPK1 protein degradation in human PBMC (western blot); type: cell-based; conditions: 18 h incubation
T2 construct: Frozen human PBMC were purchased from Shanghai OribioTech; host or cells: human PBMC
Method: HPK1 protein degradation in human PBMC: Frozen human PBMC were purchased from Shanghai OribioTech and recovered with culture medium (RMPI1640) prior to use. The cells were then incubated with a variety of concentrations of compound. After incubation for 18 h, the cells were collected and lysed. The protein concentration was determined by BCA protein assay kit from Thermo (23227). The HPK1 protein level was determined by western blots, using anti-human HPK1 polyclonal antibody from CST (4472S). Proteins were loaded into each well of the pre-casting gels and subjected to electrophoretic separation by SDS-PAGE. The protein resolved by SDS-PAGE were transferred to PVDF, blocked by 5% skim milk, and probed with anti-human HPK1 antibody or β-actin antibody from CST (3700S), using standard western blotting procedure.
T2 sequence (Q92918 whole entry): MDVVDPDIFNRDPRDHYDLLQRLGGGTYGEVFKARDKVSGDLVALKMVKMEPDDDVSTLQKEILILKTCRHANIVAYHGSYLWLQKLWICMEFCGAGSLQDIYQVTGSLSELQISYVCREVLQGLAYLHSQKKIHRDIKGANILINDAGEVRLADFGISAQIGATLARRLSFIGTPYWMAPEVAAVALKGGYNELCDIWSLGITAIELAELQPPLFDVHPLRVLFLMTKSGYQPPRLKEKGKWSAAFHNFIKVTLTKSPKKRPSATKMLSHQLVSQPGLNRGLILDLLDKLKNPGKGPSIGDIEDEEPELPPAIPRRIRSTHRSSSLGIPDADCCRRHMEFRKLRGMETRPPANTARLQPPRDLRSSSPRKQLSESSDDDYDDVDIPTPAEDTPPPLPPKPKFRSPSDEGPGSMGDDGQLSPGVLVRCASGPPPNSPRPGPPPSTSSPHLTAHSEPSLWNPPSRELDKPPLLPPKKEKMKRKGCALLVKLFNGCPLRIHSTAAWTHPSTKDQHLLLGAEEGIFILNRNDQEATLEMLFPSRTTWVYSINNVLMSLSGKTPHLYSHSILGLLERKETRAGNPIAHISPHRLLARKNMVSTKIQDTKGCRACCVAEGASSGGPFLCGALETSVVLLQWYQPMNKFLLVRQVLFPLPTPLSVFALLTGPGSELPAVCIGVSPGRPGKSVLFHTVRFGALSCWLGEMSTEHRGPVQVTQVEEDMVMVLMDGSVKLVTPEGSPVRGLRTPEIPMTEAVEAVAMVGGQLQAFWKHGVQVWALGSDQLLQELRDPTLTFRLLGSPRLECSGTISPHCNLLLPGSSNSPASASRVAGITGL

HPK1 protein [3] = molecular target: T3, HPK1 protein (Mus musculus, UniProt P70218); experiment: HPK1 protein degradation in mouse pan T cell (western blot); type: cell-based; conditions: 18 h incubation
T3 construct: the CD3+ T cell population was isolated from spleenocytes of mice; endogenous in cells; host or cells: primary mouse splenic CD3+ (pan) T cells
T3 sequence (P70218 1-827): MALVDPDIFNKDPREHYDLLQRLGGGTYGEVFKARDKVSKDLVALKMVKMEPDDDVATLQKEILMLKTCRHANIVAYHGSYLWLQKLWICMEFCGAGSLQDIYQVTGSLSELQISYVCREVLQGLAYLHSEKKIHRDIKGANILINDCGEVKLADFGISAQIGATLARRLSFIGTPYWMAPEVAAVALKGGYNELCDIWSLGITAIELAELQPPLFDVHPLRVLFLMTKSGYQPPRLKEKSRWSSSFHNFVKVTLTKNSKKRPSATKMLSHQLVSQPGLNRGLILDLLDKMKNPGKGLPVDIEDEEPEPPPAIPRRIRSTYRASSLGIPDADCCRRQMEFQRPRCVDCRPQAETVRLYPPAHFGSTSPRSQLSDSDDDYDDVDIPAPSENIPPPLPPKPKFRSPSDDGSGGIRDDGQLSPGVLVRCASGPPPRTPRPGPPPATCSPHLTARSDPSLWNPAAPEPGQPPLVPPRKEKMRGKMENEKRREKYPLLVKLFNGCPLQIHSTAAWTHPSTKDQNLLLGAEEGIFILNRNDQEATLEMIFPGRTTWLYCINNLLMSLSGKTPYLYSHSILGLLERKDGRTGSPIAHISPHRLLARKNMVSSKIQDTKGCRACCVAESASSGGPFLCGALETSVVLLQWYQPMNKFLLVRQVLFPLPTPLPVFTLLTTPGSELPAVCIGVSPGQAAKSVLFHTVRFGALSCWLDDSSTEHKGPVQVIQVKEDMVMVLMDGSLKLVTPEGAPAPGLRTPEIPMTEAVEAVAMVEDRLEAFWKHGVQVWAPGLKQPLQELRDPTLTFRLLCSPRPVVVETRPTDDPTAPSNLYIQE
In short: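 CD3+ pan T cells were isolated from mouse splenocytes and incubated 18 h with a range of compound concentrations. Lysates were normalised by BCA and run on SDS-PAGE. HPK1 was detected by western blot with an anti-human HPK1 polyclonal antibody, with β-actin as loading control.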

[4] = system: IL-2 production in primary mouse CD3+ T cells; experiment: Cytokine measurement: IL-2 production in mouse CD3+ T cells (ELISA); type: cell-based; conditions: T-cell, plate bound anti-CD3, 40 hrs; for fold induction at 1 µM: 1 uM compound, read-out: IL-2 production Fold change (1 uM); for fold induction at 3 µM: 3 uM compound, read-out: IL-2 production Fold change (3 uM)
Method: Anti-CD3 Ab was used to provide signal 1 to stimulate mouse CD3+ T cells. Effect of compound stimulation on T cells was measure by IL2 ELISA. Briefly, anti-CD3 Ab was coated onto plates overnight. Isolated T cells from mouse splenocytes were incubated with plate bound CD3 in the presence and absence of compound for 40 hrs. After incubation, the supernatant was collected and IL2 level in the supernatant was determined by mouse IL2 ELISA kit.

| IC50 (HPK1 protein [1]) [nM] | IC50 (HPK1 p-SLP-76) [nM] | Dmax (HPK1 protein [2]) [%] | Dmax (HPK1 protein [3]) [%] | SMILES | fold induction at 1 µM [4] | fold induction at 3 µM [4] |
| --- | --- | --- | --- | --- | --- | --- |
| 10 to 100 | ≤ 300 | 94 | 95 | O=C1CCC(N2C(=O)c3ccc(N4CCC(OCC(=O)N5CCN(c6cccc(-c7cnc8[nH]cc(CC(F)F)c8c7Cl)c6)C(=O)C5)CC4)cc3C2=O)C(=O)N1 (stereo not shown) [Example 36] | 1.8 | 3.8 |
| 100 to 1000 | 300 to 3000 | 94 | 95 | O=C1CCC(N2C(=O)c3cc(F)c(N4CCN(CCCN5CCN(c6cccc(-c7cnc8[nH]cc(C9CC9)c8c7Cl)c6)C(=O)C5)CC4)cc3C2=O)C(=O)N1 (stereo not shown) [Example 43] |  |  |
| ≤ 10 | 300 to 3000 | 98 | 95 | O=C1CCC(N2Cc3cc(C4=CCN(CCCN5CCN(c6cccc(-c7cnc8[nH]cc(C9CC9)c8c7Cl)c6)C(=O)C5)CC4)ccc3C2=O)C(=O)N1 (stereo not shown) [Example 56, 3-(5-(1-(3-(4-(3-(4-chloro-3-cyclopropyl-1H-pyrrolo[2,3-b]pyridin-5-yl)phenyl)-3-oxopiperazin-1-yl)propyl)-1,2,3,6-tetrahydropyridin-4-yl)-1-oxoisoindolin-2-yl)piperidine-2,6-dione] |  |  |
| ≤ 10 | ≤ 300 | 90 |  | O=C1CCC(N2Cc3cc(N4CCN(CCCN5CCN(c6cccc(-c7cnc8[nH]cc(C9CC9)c8c7Cl)c6)C(=O)C5)CC4)ccc3C2=O)C(=O)N1 (stereo not shown) [Example 63, 3-(5-(4-(3-(4-(3-(4-chloro-3-cyclopropyl-1H-pyrrolo[2,3-b]pyridin-5-yl)phenyl)-3-oxopiperazin-1-yl)propyl)piperazin-1-yl)-1-oxoisoindolin-2-yl)piperidine-2,6-dione] | 2.1 | 2 |
| ≤ 10 | 300 to 3000 | 90 | 88 | O=C1CCC(Nc2ccc(C3CCN(CCCN4CCN(c5cccc(-c6cnc7[nH]cc(C8CC8)c7c6Cl)c5)C(=O)C4)CC3)cc2)C(=O)N1 (stereo not shown) [Example 78, 3-((4-(1-(3-(4-(3-(4-chloro-3-cyclopropyl-1H-pyrrolo[2,3-b]pyridin-5-yl)phenyl)-3-oxopiperazin-1-yl)propyl)piperidin-4-yl)phenyl)amino)piperidine-2,6-dione] |  |  |
| ≤ 10 | ≤ 300 |  | 97 | O=C1CCC(Nc2ccc(N3CCN(CCCN4CCN(c5cccc(-c6cnc7[nH]cc(C8CC8)c7c6Cl)c5)C(=O)C4)CC3)c(F)c2)C(=O)N1 (stereo not shown) [Example 79, 3-((4-(4-(3-(4-(3-(4-chloro-3-cyclopropyl-1H-pyrrolo[2,3-b]pyridin-5-yl)phenyl)-3-oxopiperazin-1-yl)propyl)piperazin-1-yl)-3-fluorophenyl)amino) piperidine-2,6-dione] | 2.6 | < 0.5 |
| 10 to 100 | > 10000 |  |  | O=C1CCC(N2C(=O)c3ccc(N4CCC(COC(=O)N5CCN(c6cccc(-c7cnc8[nH]cc(C9CC9)c8c7Cl)c6)C(=O)C5)CC4)cc3C2=O)C(=O)N1 (stereo not shown) [Example 88] | 2.3 | 2.4 |
| 10 to 100 | ≤ 300 | 99 | 90 | CCc1c[nH]c2ncc(-c3cccc(N4CCN(S(=O)(=O)CCCN5CCN(c6ccc7c(c6)C(=O)N(C6CCC(=O)NC6=O)C7=O)CC5)CC4=O)c3)c(Cl)c12 (stereo not shown) [Example 99, 5-(4-(3-((4-(3-(4-chloro-3-ethyl-1H-pyrrolo[2,3-b]pyridin-5-yl)phenyl)-3-oxopiperazin-1-yl)sulfonyl)propyl)piperazin-1-yl)-2-(2,6-dioxopiperidin-3-yl)isoindoline-1,3-dione] |  |  |
| ≤ 10 | ≤ 300 |  |  | O=C1CCC(N2Cc3cc(N4CCN(CCCS(=O)(=O)N5CCN(c6cccc(-c7cnc8[nH]cc(C9CC9)c8c7Cl)c6)C(=O)C5)CC4)ccc3C2=O)C(=O)N1 (stereo not shown) [Example 103, 3-(5-(4-(3-((4-(3-(4-chloro-3-cyclopropyl-1H-pyrrolo[2,3-b]pyridin-5-yl)phenyl)-3-oxopiperazin-1-yl)sulfonyl)propyl)piperazin-1-yl)-1-oxoisoindolin-2-yl)piperidine-2,6-dione] | 2.1 | 2.8 |

| SMILES | IC50 (HPK1 protein [1]) [nM] | IC50 (HPK1 p-SLP-76) [nM] | Dmax (HPK1 protein [2]) [%] | Dmax (HPK1 protein [3]) [%] | fold induction at 1 µM [4] | fold induction at 3 µM [4] |
| --- | --- | --- | --- | --- | --- | --- |
| CCc1c[nH]c2ncc(-c3cccc(N4CCN(CCCOC5CCN(c6ccc7c(c6)C(=O)N(C6CCC(=O)NC6=O)C7=O)CC5)CC4=O)c3)c(Cl)c12 (stereo not shown) [Example 35, 5-(4-(3-(4-(3-(4-chloro-3-ethyl-1H-pyrrolo[2,3-b]pyridin-5-yl)phenyl)-3-oxopiperazin-1-yl)propoxy)piperidin-1-yl)-2-(2,6-dioxopiperidin-3-yl)isoindoline-1,3-dione] | 10 to 100 | 300 to 3000 | 90 | 95 |  |  |
| O=C1CCC(N2Cc3cc(C4CCN(CCCN5CCN(c6cccc(-c7cnc8[nH]cc(C9CC9)c8c7Cl)c6)C(=O)C5)CC4)ccc3C2=O)C(=O)N1 (stereo not shown) [Example 54, 3-(5-(1-(3-(4-(3-(4-chloro-3-cyclopropyl-1H-pyrrolo[2,3-b]pyridin-5-yl)phenyl)-3-oxopiperazin-1-yl)propyl)piperidin-4-yl)-1-oxoisoindolin-2-yl)piperidine-2,6-dione] | ≤ 10 | ≤ 300 | 83 | 95 |  |  |
| O=C1CCC(N2C(=O)c3ccc(OCCC4CN(C(=O)N5CCN(c6cccc(-c7cnc8[nH]cc(C9CC9)c8c7Cl)c6)C(=O)C5)C4)cc3C2=O)C(=O)N1 (stereo not shown) [Example 95, 5-(2-(1-(4-(3-(4-chloro-3-cyclopropyl-1H-pyrrolo[2,3-b]pyridin-5-yl)phenyl)-3-oxopiperazine-1-carbonyl)azetidin-3-yl)ethoxy)-2-(2,6-dioxopiperidin-3-yl)isoindoline-1,3-dione] | 10 to 100 |  |  |  | 1.8 | 2.7 |
| O=C1CCC(c2ccc(C3CCN(CCCS(=O)(=O)N4CCN(c5cccc(-c6cnc7[nH]cc(C8CC8)c7c6Cl)c5)C(=O)C4)CC3)cc2)C(=O)N1 (stereo not shown) [Example 102, 3-(4-(1-(3-((4-(3-(4-chloro-3-cyclopropyl-1H-pyrrolo[2,3-b]pyridin-5-yl)phenyl)-3-oxopiperazin-1-yl)sulfonyl)propyl)piperidin-4-yl)phenyl)piperidine-2,6-dione] | ≤ 10 | 300 to 3000 |  |  | 2.9 | 2.6 |
